Assay results reported in patent publication US20220395464A1, “ORALLY ADMINISTERED SOLID DOSAGE FORM DRUG” (ASCENTAWITS PHARMACEUTICALS, LTD., priority 2019, published 2022).
Values joined by “and” are separate entries in the source; they are usually repeats but may differ in a detail not shown here. Equal entries are not always repeated.

Legend:
[1] = Stability in hepatomicrosome with NADPH (LC-MS/MS); type: in vitro ADME, human; details: for % Remaining: human hepatomicrosome 0.5 mg/ml, NADPH 2 mM, 37° C., Sample 1, Sample 2
Method: The compounds, hepatomicrosome and reduced coenzyme NADPH were mixed together. Besides, a final concentration of the hepatomicrosome was 0.5 mg/ml, and human, male and mixed types of the hepatomicrosome were purchased. A final concentration of the NADPH was 2 mM. Next, the preceding mixtures were incubated in buffer (100 mM KH2PO4—K2HPO4) at 37° C. for 0, 5, 15, 30, 45, and 60 minutes, respectively. At the appointed incubation time, the reaction was terminated by the addition of an internal standard solution. Finally, the samples were centrifuged and the supernatant was taken for detection by LC-MS/MS.
Through mass spectrometry analysis, a concentration of the compounds in each sample was expressed by a peak-area ratio (a ratio of the peak-area of the compound to a peak-area of the internal standard). Then, each remaining percentage of the compounds (% Remaining) at each appointed incubation time was calculated with a reference that 0 minute at each concentration of the compounds. In logarithm of the remaining percentage was fitted linearly with the appointed incubation times, and a half-life and an intrinsic clearance were calculated according to the following formulas.
The remaining percentage (% Remaining)=(a peak area ratio at a certain appointed time (PARappointed time)/a peak area ratio at 0 minute (PAR0-mm)×100 (PAR: peak area ratio)
The elimination rate constant (k)=a negative of a slope (-gradient)
In vitro clearance (CLint, in vitro) (ml/min/mg)=k/c (c: a concentration of hepatomicrosome in the incubation system)

[2] = Pharmacokinetics after single intravenous drip infusion, plasma LC-MS/MS; type: in vivo, Philippine macaques; details: individual animals 101, 102, 103; for Plasma-drug concentration: AST-3424 intravenous drip infusion 0.58 mg/kg
Method: AST-3424 and AST-3424-D6 (i.e. the compound of formula I) were administered to Philippine macaques by intravenous drip infusion, and blood samples were collected at different appointed times. LC-MS/MS was used to determine concentrations of the test substances in plasma of the Philippine macaques after administration, and relevant pharmacokinetic parameters were calculated.
Preparation method: 0.447 ml of AST-3424 (0.2 mg/ml) and 0.481 ml of AST-3424-D6 (0.2 mg/ml) were added into 104.272 ml of the dissolvent, respectively, and mixed for 5 minutes to obtain colorless and clarified solutions with pH 7.0.
The four male Philippine macaques were purchased from Guangxi Xiongsen Primate Development Experiment Co., Ltd. All Philippine macaques were healthy with qualified medical examination and no abnormality. Three of animals were used for the experiment, and one of them was used to prepare blank plasma.
About 0.8 ml of blood samples were collected through femoral vein and anticoagulated with heparin sodium. Appointed times of blood collection were before administration, 0.17, 0.25, 0.5, 0.75, 1, 2, and 4 hours after administration.
The blood samples were placed on ice after collection. Next, plasma samples were separated by centrifugation, and centrifugation conditions were 3500 rpm for 10 minutes at 4° C. Then, the collected plasma samples were stored at −80° C. until analysis. The plasma samples were analyzed by LC-MS/MS by an analysis department of an experimental institution. Besides, Lower limit of quantifications (LLOQ) of AST-3424 and AST-3424-D6 detection were 1 ng/ml. The accuracy of analysis results of an accompanying standard curve and a quality control samples all met the relevant requirements of biological analysis (the accuracy of the quality control samples exceeding 66.7% was between 85˜115%) in a process of the sample detection.
According to average blood concentration data of each group at each appointed time, the pharmacokinetic parameters of the compounds were respectively computed by a pharmacokinetic computing software, a non-compartmental model. In addition, the pharmacokinetic parameters were AUC0-t, AUC0-∞, MRT0-∞, Cmax, Tmax, t1/2, etc. In the case of the concentrations of the samples whose concentration being lower than a lower limit of quantification, the following schemes were used to compute the pharmacokinetic parameters. The samples sampled before reaching Cmax shall be computed as zero value, while the samples sampled after reaching Cmax shall be computed as non-quantifiable (marked as “BLQ”).
After a single intravenous infusion of the compounds AST-3424 and AST-3424-D6 was administered to the Philippine macaques, the whole blood samples of the corresponding animals were collected at the appointed times. Next, the whole blood samples were processed and biologically analyzed to obtain concentrations of the compounds in the plasma at the different appointed times. Results of the assay were listed in Table 14 below, and corresponding means of the plasma-drug concentration-time curves are shown in FIG. 3.
According to the plasma-drug concentration data of each drug group, the pharmacokinetic parameters of each compound group were computed using the non-compartmental model of the pharmacokinetic computing software. The pharmacokinetic

[3] = AST-3424 0.58 mg/kg single intravenous infusion, plasma, 0.58 mg/kg

SMILES: C[C@H](OP(=O)(N1CC1)N1CC1)c1ccc([N+](=O)[O-])c(Oc2cccc(C(=O)N(C)C)c2)c1 [AST-3424, (S)-1-(3-(3-N,N-Dimethylaminocarbonyl)phenoxy-4-nitrophenyl)-1-ethyl-N,N′-bis(ethylene) phosphoramidate]
- Stability parameter k (elimination rate constant) ([1]; human hepatomicrosome): 0.0606 min⁻¹
- % Remaining ([1]; 0 minutes): 101.36% and 98.64%
- % Remaining ([1]; 5 minutes): 77.67% and 80.00%
- % Remaining ([1]; 15 minutes): 45.83% and 47.38%
- % Remaining ([1]; 30 minutes): 17.86% and 16.93%
- % Remaining ([1]; 45 minutes): 6.52% and 6.95%
- % Remaining ([1]; 60 minutes): 2.64% and 2.68%
- % Remaining, Average ([1]; human hepatomicrosome, 0 minutes): 100.00%
- % Remaining, Average ([1]; human hepatomicrosome, 5 minutes): 78.83%
- % Remaining, Average ([1]; human hepatomicrosome, 15 minutes): 46.60%
- % Remaining, Average ([1]; human hepatomicrosome, 30 minutes): 17.40%
- % Remaining, Average ([1]; human hepatomicrosome, 45 minutes): 6.74%
- % Remaining, Average ([1]; human hepatomicrosome, 60 minutes): 2.66%
- half-life ([1]; male, liver microsomes (hepatomicrosome), human hepatomicrosome, read-out: Stability parameter (t1/2)): 11.4 min
- AUC(0−t) [2, 3]: 430.42 ng·h/mL and 474.63 ng·h/mL
- AUC(0−∞) [2, 3]: 430.76 ng·h/mL and 475.04 ng·h/mL
- Cl [2, 3]: 22.4412 mL/min/kg and 20.3492 mL/min/kg
- Cmax [2, 3]: 677.40 ng/mL and 800.80 ng/mL
- MRT(0−t) [2, 3]: 11.4 min
- MRT(0−∞) [2, 3]: 11.4 min and 10.8 min
- T1/2 [2, 3]: 10.8 min and 11.4 min
- Tmax [2, 3]: 15 min and 30 min and 10.2 min
- Vss [2, 3]: 0.26123 L/kg and 0.21373 L/kg
- Vz [2, 3]: 0.35358 L/kg and 0.33343 L/kg
- Plasma-drug concentration ([2]; 0.17 hr): 800.80 ng/mL and 685.96 ng/mL
- Plasma-drug concentration ([2]; 0.25 hr): 729.91 ng/mL and 695.61 ng/mL
- Plasma-drug concentration ([2]; 0.5 hr): 729.08 ng/mL and 679.80 ng/mL
- Plasma-drug concentration ([2]; 0.75 hr): 157.68 ng/mL and 118.92 ng/mL
- Plasma-drug concentration ([2]; 1 hr): 50.63 ng/mL and 31.86 ng/mL
- Plasma-drug concentration ([2]; 2 hr, LLOQ 1 ng/ml): 1.51 ng/ ml and BLQ
- Plasma-drug concentration ([2]; 4 hr, LLOQ 1 ng/ml): BLQ
